The text below walks through data of US7495027B2, “3-aryl-4-hydroxyfuranone compounds and the human and animal health use thereof” (Wyeth, priority 2003, dated 2009).

Values after ≈ are worked out from the molar mass of the structure shown. Where only a bound is given, the exact number is not on record here.

E. coli UDP-N-acetylglucosamine enolpyruvoyl transferase, MurA, sequence (P0A749 whole entry): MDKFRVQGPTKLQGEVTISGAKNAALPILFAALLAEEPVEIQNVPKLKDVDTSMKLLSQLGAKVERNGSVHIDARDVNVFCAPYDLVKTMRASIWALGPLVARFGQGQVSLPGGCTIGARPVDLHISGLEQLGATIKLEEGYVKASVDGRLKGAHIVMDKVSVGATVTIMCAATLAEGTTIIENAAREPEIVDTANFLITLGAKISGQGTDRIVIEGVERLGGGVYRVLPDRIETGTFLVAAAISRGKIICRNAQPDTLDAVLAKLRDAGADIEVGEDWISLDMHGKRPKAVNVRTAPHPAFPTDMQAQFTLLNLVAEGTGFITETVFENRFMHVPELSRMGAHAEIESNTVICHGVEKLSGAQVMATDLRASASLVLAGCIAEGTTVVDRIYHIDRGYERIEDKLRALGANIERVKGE
E. coli Uridine-diphosphate-N-acetvimuramoyl: L-alanine lipase, MurC, sequence (P17952 whole entry): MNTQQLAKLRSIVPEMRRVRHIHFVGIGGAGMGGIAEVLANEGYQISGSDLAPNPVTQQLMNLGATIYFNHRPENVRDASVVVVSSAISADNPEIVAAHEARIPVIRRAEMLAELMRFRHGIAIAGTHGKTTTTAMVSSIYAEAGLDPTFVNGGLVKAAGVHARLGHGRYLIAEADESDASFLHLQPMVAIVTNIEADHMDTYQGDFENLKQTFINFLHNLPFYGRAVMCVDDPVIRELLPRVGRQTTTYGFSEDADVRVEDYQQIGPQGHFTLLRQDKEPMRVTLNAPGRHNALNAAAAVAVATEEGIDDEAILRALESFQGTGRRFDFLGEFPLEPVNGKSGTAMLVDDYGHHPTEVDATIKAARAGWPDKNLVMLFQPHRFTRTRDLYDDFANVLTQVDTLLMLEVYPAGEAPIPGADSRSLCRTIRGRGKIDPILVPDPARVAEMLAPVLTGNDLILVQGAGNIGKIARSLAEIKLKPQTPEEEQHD

The test system of one assay is Streptococci. Description: Minimum inhibitory concentration, microdilution broth method, streptococci. Type of assay: cell-based. Conditions: S. pneumo GC 1894; Mueller-Hinton broth with 5% horse blood, 18-22 hours at 35° C. As for the experimental part:
(§1) Evaluation of the Minimum Inhibitory Concentration of Test Compounds Against A Variety of Bacterial Strains
(§2) In this evaluation the minimal inhibitory concentration (MIC) of test compounds against Gram positive and Gram negative bacteria is performed using the microdilution broth method as recommended by the National Committee for Clinical Laboratory Standards (Approved Standards M7-A5 2000). Mueller-Hinton broth is used for the enterobacteriaceae, staphylococci and enterococci. Streptococci are also tested in Mueller-Hinton broth supplemented with 5% horse blood (LHB). Test organisms include recent clinical isolates that are resistant to methicillin, penicillin and/or vancomycin. […].
For orientation: Broth dilution looks for growth in wells or tubes with falling amounts of substance.
The term MIC denotes the lowest concentration that inhibits growth of the organism. In turn, `CCCc1ccc(-c2ccc(C3=C(O)/C(=C/c4cc(F)cc(C(F)(F)F)c4)OC3=O)cc2)cc1` [Example 111] registered an MIC of 0.25 µg/mL (≈ 0.534 µM).
`O=C1O/C(=C\c2cccc(C(F)(F)F)c2Cl)C(O)=C1c1ccc(-c2ccccc2)cc1` [Example 113]: the MIC turned out to be 0.25 µg/mL (≈ 0.565 µM).
As to `O=C1O/C(=C\c2cccc(C(F)(F)F)c2Cl)C(O)=C1c1ccc(-c2ccccc2)c(F)c1` [Example 114], the MIC was 0.25 µg/mL (≈ 0.543 µM).
Same read-out and setting: with `CCCc1ccc(-c2ccc(C3=C(O)/C(=C/c4cccc(C(F)(F)F)c4Cl)OC3=O)cc2)cc1` [Example 115] the figure was 0.25 µg/mL (≈ 0.516 µM).

In another assay the target is E. coli Uridine-diphosphate-N-acetvimuramoyl: L-alanine lipase, MurC (Escherichia coli, UniProt P17952). The experiment in a line: Inhibitory activity against MurC (E. coli). The assay is classed as biochemical. Conditions: (E) E. coli enzyme. The procedure:
S. aureus and E. coli Uridine-diphosphate-N-acetvimuramoyl: L-alanine lipase, MurC
The buffer is prepared from aqueous reagents with the following final concentrations: 83 mM Tris/HCl (pH 8.0), 50 mM MgC12, and 2 mM ATP.
(§3) Preparation of Enzyme Solution:
A 1 mg/mL stock solution of MurC is prepared in a buffer consisting of 20 mM Tris/HCl (pH 8.5) with 2.5 μM BME. The stock solution is further diluted with the buffer to give a final enzyme concentration of 100 μg/mL for the E. coli stock solution and 70 μg/mL for the S. aureus stock solution.
(§4) Preparation of Test Compound Solutions:
(§5) All test solutions are prepared in DMSO as 10 mg/mL, then diluted with 50 mM Tris/HCl (pH 8.5) to 100 μg/mL.
(§6) Preparation of Stop Solution:
The stop solution is prepared by stirring 1 part 4.2% ammonium molydbate in 4N HCl with 2 parts 0.045% malachite green for 30 min.
In this evaluation, the inhibitory activity of a test compound against MurC, the enzyme which catalyzes the third step of bacterial cell wall bioxynthesis is determined. Experiments are performed by adding 2.5 μl buffer, 2.5 μl 0.5M NH4SO2, 5 μl 2 μM L-Ala, 5 μl enzyme solution and 6.5 μl test compound solution to each well in a 96-well microplate. After a pre-incubation period of 10 mins. at 23° C., 3.75 μl of a 0.75 μM solution of UDP-MurNac is added to each well. Following an incubation period of 10 mins. at 37° C., 210 μl stop solution and 50 μl of a 34% w/v sodium citrate solution are added and color is allowed to develop for 10 mins. at 23° C. (Lanzetta et al., Analytical Biochemistry, 1979, 95) Optical density readings are taken at 660 nm using a Molecular Devices Spectra Max 250 with Soft Max software. Controls are performed using the same procedure and omitting the addition of UDP-MurNac.
Using these values the IC50 is determined by linear regression analysis.
As to `O=C1O/C(=C\c2cccc(C(F)(F)F)c2Cl)C(O)=C1c1ccc(-c2ccccc2)c(F)c1` [Example 114], the “MurC IC50” value is on record as 10 (E) μg/mL.

The same assay, now with this note: (E) E. coli enzyme; read-out: MurC IC50 (converted).
For orientation: IC50 means the concentration that gives 50% inhibition. In the case of `CCCc1ccc(-c2ccc(C3=C(O)/C(=C/c4cc(F)cc(C(F)(F)F)c4)OC3=O)cc2)cc1` [Example 111], the half-inhibitory concentration (IC50) was > 53.4 µM.
With `O=C1O/C(=C\c2cccc(C(F)(F)F)c2Cl)C(O)=C1c1ccc(-c2ccccc2)cc1` [Example 113], the IC50 was > 56.5 µM.
On to `CCCc1ccc(-c2ccc(C3=C(O)/C(=C/c4cccc(C(F)(F)F)c4Cl)OC3=O)cc2)cc1` [Example 115], for which the IC50 is > 51.6 µM.

The subject of a further assay is enterococci. Description: Minimum inhibitory concentration, microdilution broth method, enterococci. Conditions: Enterococcus faecalis, E. faecalis GC 2242; Mueller-Hinton broth, 18-22 hours at 35° C.; read-out: MIC E. faecalis GC 2242. The assay is classed as cell-based. As for the experimental part: as §1, §2
Take `CCCc1ccc(-c2ccc(C3=C(O)/C(=C/c4cc(F)cc(C(F)(F)F)c4)OC3=O)cc2)cc1` [Example 111]: the MIC was 1 µg/mL (≈ 2.13 µM).
Regarding `O=C1O/C(=C\c2cccc(C(F)(F)F)c2Cl)C(O)=C1c1ccc(-c2ccccc2)cc1` [Example 113], the MIC is 1 µg/mL (≈ 2.26 µM).
For the molecule `O=C1O/C(=C\c2cccc(C(F)(F)F)c2Cl)C(O)=C1c1ccc(-c2ccccc2)c(F)c1` [Example 114], the MIC was 0.5 µg/mL (≈ 1.09 µM).
On to `CCCc1ccc(-c2ccc(C3=C(O)/C(=C/c4cccc(C(F)(F)F)c4Cl)OC3=O)cc2)cc1` [Example 115], for which the MIC turned out to be 0.25 µg/mL (≈ 0.516 µM).

Still in this assay, the particulars now being: Enterococcus faecalis, E. faecalis GC 4555; Mueller-Hinton broth, 18-22 hours at 35° C.; read-out: MIC E. faecalis GC 4555.
Regarding `CCCc1ccc(-c2ccc(C3=C(O)/C(=C/c4cc(F)cc(C(F)(F)F)c4)OC3=O)cc2)cc1` [Example 111], the MIC was 16 µg/mL (≈ 34.2 µM).
On the same count and under the same terms, for `O=C1O/C(=C\c2cccc(C(F)(F)F)c2Cl)C(O)=C1c1ccc(-c2ccccc2)cc1` [Example 113] the value was 4 µg/mL (≈ 9.03 µM).
On the same count and under the same terms, with `O=C1O/C(=C\c2cccc(C(F)(F)F)c2Cl)C(O)=C1c1ccc(-c2ccccc2)c(F)c1` [Example 114] the figure was 2 µg/mL (≈ 4.34 µM); with `CCCc1ccc(-c2ccc(C3=C(O)/C(=C/c4cccc(C(F)(F)F)c4Cl)OC3=O)cc2)cc1` [Example 115], 2 µg/mL (≈ 4.12 µM).

For a further assay, the system named is staphylococci. Description: Minimum inhibitory concentration, microdilution broth method, staphylococci. Type of assay: cell-based. Particulars: Staphylococcus aureus, S. aureus GC 1131; Mueller-Hinton broth, 18-22 hours at 35° C.; read-out: MIC S. aureus GC 1131. The procedure:
as §1, §2
On to `CCCc1ccc(-c2ccc(C3=C(O)/C(=C/c4cc(F)cc(C(F)(F)F)c4)OC3=O)cc2)cc1` [Example 111], for which the MIC was 32 µg/mL (≈ 68.3 µM).
Consider `O=C1O/C(=C\c2cccc(C(F)(F)F)c2Cl)C(O)=C1c1ccc(-c2ccccc2)cc1` [Example 113], for which the minimal inhibitory concentration (MIC) was 1 µg/mL (≈ 2.26 µM).
Same read-out and setting: for `O=C1O/C(=C\c2cccc(C(F)(F)F)c2Cl)C(O)=C1c1ccc(-c2ccccc2)c(F)c1` [Example 114] the value was 1 µg/mL (≈ 2.17 µM); for `CCCc1ccc(-c2ccc(C3=C(O)/C(=C/c4cccc(C(F)(F)F)c4Cl)OC3=O)cc2)cc1` [Example 115], 4 µg/mL (≈ 8.25 µM).

The assay is the same for the next values; noted with them: Staphylococcus aureus, S. aureus GC 4543; Mueller-Hinton broth, 18-22 hours at 35° C.; read-out: MIC S. aureus GC 4543.
In the case of `CCCc1ccc(-c2ccc(C3=C(O)/C(=C/c4cc(F)cc(C(F)(F)F)c4)OC3=O)cc2)cc1` [Example 111], the MIC is 16 µg/mL (≈ 34.2 µM).
Still for that read-out and setting: for `O=C1O/C(=C\c2cccc(C(F)(F)F)c2Cl)C(O)=C1c1ccc(-c2ccccc2)cc1` [Example 113] the value was 2 µg/mL (≈ 4.52 µM); for `O=C1O/C(=C\c2cccc(C(F)(F)F)c2Cl)C(O)=C1c1ccc(-c2ccccc2)c(F)c1` [Example 114], 1 µg/mL (≈ 2.17 µM); for `CCCc1ccc(-c2ccc(C3=C(O)/C(=C/c4cccc(C(F)(F)F)c4Cl)OC3=O)cc2)cc1` [Example 115], 4 µg/mL (≈ 8.25 µM).

In the next assay the target is E. coli Uridine-diphosphate-N-acetylmuramoyl-L-alanine: D-glutamate liease, MurD (Escherichia coli, UniProt P14900). The experiment in a line: biochemical. Conditions: (E) E. coli enzyme. The procedure: S. aureus and E. coli Uridine-diphosphate-N-acetylmuramoyl-L-alanine: D-glutamate liease, MurD
E. coli Uridine-diphosphate-N-acetylmuramoyl-L-alanine: D-glutamate liease, MurD, sequence (P14900 whole entry): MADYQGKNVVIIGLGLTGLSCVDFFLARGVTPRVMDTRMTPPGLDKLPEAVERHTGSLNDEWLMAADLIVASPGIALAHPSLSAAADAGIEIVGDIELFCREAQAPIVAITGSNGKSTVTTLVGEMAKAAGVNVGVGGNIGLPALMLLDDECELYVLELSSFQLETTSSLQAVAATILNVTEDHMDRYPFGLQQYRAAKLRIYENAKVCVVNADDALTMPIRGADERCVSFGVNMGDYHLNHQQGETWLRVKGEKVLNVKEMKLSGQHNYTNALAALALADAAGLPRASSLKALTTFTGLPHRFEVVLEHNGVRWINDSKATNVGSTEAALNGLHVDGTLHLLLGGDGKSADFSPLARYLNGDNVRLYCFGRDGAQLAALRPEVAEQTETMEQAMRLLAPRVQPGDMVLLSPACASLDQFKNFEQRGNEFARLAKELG
The buffer is prepared from aqueous reagents with the following final concentrations: 83 mM Tris/HCl (pH 8.0), 50 mM MgCl2, and 2 mM ATP.
as §3, §4, §5, §6
In this evaluation, the inhibitory activity of a test compound against MurD, the enzyme which catalyzes the fourth step of bacterial cell wall biosynthesis is determined.
As to `CCCc1ccc(-c2ccc(C3=C(O)/C(=C/c4cc(F)cc(C(F)(F)F)c4)OC3=O)cc2)cc1` [Example 111], the IC50 was > 53.4 µM.
`O=C1O/C(=C\c2cccc(C(F)(F)F)c2Cl)C(O)=C1c1ccc(-c2ccccc2)cc1` [Example 113]: the IC50 was > 56.5 µM.
Regarding `O=C1O/C(=C\c2cccc(C(F)(F)F)c2Cl)C(O)=C1c1ccc(-c2ccccc2)c(F)c1` [Example 114], the “MurD IC50” value is on record as 16 (E) μg/mL.
Turning to `CCCc1ccc(-c2ccc(C3=C(O)/C(=C/c4cccc(C(F)(F)F)c4Cl)OC3=O)cc2)cc1` [Example 115], the IC50 is > 51.6 µM.

The target of the next assay is E. coli Enopyruvyl-UPD-N-acetylglucosamine reductase, Mur B (Escherichia coli, UniProt P08373). Description: biochemical. Conditions: (E) E. coli enzyme. The procedure: S. aureus and E. coli Enopyruvyl-UPD-N-acetylglucosamine reductase, Mur B
E. coli Enopyruvyl-UPD-N-acetylglucosamine reductase, Mur B, sequence (P08373 whole entry): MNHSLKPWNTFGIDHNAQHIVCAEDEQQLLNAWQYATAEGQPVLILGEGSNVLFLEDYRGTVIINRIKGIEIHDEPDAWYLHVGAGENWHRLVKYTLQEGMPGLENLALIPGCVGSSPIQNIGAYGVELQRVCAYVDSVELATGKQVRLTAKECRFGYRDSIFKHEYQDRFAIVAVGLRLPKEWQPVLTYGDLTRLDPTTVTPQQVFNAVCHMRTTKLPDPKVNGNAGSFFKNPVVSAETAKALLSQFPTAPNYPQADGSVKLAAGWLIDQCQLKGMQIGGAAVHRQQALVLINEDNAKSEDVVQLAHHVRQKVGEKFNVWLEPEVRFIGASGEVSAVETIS
Preparation of Tris/BME buffer:
Dilute 17.5 uL of aqueous 5 mM BME (2-mercaptoethanol) to 50 mL with 50 mM Tris/HCl (pH 8.0).
as §3
Dilute aqueous MurB stock solution (0.94 mg/mL) with 200 parts 50 mM Tris/2-BME buffer.
Synthesis of Substrate for MurB (MurA Product EP-UDP-GluNAc):
A mixture of 13 mg UDP-N-acetylglucosamine and 5.5 mg phosphoenolpyruvate are dissolved in 10 mL Tris/BME buffer forming 2 mM concentrations of each reagent in solution.
Preparation of Assay Buffer:
The assay buffer is prepared in water from reagents with the following final concentrations: 100 mM Tris/HCl (pH 8.0), 200 μM NADPH, 100 μM MurB substrate, 10 μM 2-mercaptoethanol, and 10 μM KCl.
Experiments are performed by adding 20 μL of a solution of test compound in a mixture of dimethylsulfoxide and water and 30 μL of enzyme solution to a well. After a pre-incubation period of 20 mins. at 23° C., 50 μL of Tris/BME buffer and 100 μL of assay buffer are added. […] Controls are performed using the same procedure and employing 20 μL of a blank dimethylsulfonide and solvent mixture in place of the test compound solution.
Using these values, the IC50 for each test compound is determined by linear regression analysis.
`O=C1O/C(=C\c2cccc(C(F)(F)F)c2Cl)C(O)=C1c1ccc(-c2ccccc2)c(F)c1` [Example 114]: the “MurB IC50” value is 1 (E) μg/mL.

The same assay, now with this note: (E) E. coli enzyme; read-out: MurB IC50 (converted).
Regarding `CCCc1ccc(-c2ccc(C3=C(O)/C(=C/c4cc(F)cc(C(F)(F)F)c4)OC3=O)cc2)cc1` [Example 111], the concentration for half-maximal inhibition (IC50) is 23.5 µM.
As for `O=C1O/C(=C\c2cccc(C(F)(F)F)c2Cl)C(O)=C1c1ccc(-c2ccccc2)cc1` [Example 113], the IC50 was 6.77 µM.
Take `CCCc1ccc(-c2ccc(C3=C(O)/C(=C/c4cccc(C(F)(F)F)c4Cl)OC3=O)cc2)cc1` [Example 115]: the IC50 was 10.3 µM.

In the next assay the target is E. coli UDP-N-acetylglucosamine enolpyruvoyl transferase, MurA (Escherichia coli, UniProt P0A749). The experiment in a line: biochemical. Conditions: (E) E. coli enzyme. As for the experimental part:
Evaluation of the Inhibitory Activity of Test Compounds Against Enzymes which Catalyze Bacterial Cell Wall Biosynthesis
S. aureus and E. coli UDP-N-acetylglucosamine enolpyruvoyl transferase, MurA
as §3
The enzyme solution is prepared by admixing the following: 50 mM Tris/HCl pH 8.0, […] 1 M Tris, 5 mM DTT, […] 1 M DTT, 20% Glycerol 4 ml 50% Glycerol, add water to 10 ml.
as §6
A procedure similar to that described by C. […] Experiments are performed by adding a solution of test compound (in a mixture of dimethylsulfoxide and water) and an enzyme solution to a well. After a pre-incubation period of 10 mintues at 37° C., Tris/BME buffer and assay buffer are added. A start point optical density (OD0) reading is taken at 340 nm immediately following the addition of assay buffer. After incubation for 1 hr at 37° C., the stop solution is added and the color is allowed to develop for 30 minutes.
Turning to `CCCc1ccc(-c2ccc(C3=C(O)/C(=C/c4cc(F)cc(C(F)(F)F)c4)OC3=O)cc2)cc1` [Example 111], the half-inhibitory concentration (IC50) is > 53.4 µM.
Turning to `O=C1O/C(=C\c2cccc(C(F)(F)F)c2Cl)C(O)=C1c1ccc(-c2ccccc2)cc1` [Example 113], the 50% inhibitory concentration (IC50) was 9.03 µM.
For the molecule `O=C1O/C(=C\c2cccc(C(F)(F)F)c2Cl)C(O)=C1c1ccc(-c2ccccc2)c(F)c1` [Example 114], the “MurA IC50” value was 1 (E) μg/mL.
In the case of `CCCc1ccc(-c2ccc(C3=C(O)/C(=C/c4cccc(C(F)(F)F)c4Cl)OC3=O)cc2)cc1` [Example 115], the IC50 is 10.3 µM.
